{"source": "patent US8124598B2", "about": "(priority 2006, dated 2012)", "key": {"[1]": {"system": "trauma victims", "test": "Trauma victims with or without PTSD or depression, stress-related physiologic measures (Example 6)", "type": "in vivo, human", "conditions": "25-75 mg/day by mouth for 1 to 6 months"}, "[2]": {"system": "patients with treatment-resistant PTSD, panic disorder, anxiety, depression and other conditions", "test": "Eight case reports: 7-keto DHEA in treatment-resistant patients (Example 3)", "type": "in vivo, human"}, "[3]": {"system": "trauma victims", "test": "Trauma victims after a terrorist attack, 7-keto DHEA vs placebo (Example 4)", "type": "in vivo, human", "conditions": "50 or 75 mg/day by mouth for 2 to 6 weeks immediately following the incident"}, "[4]": {"system": "healthy male volunteers", "conditions": "cited from earlier work"}, "[5]": {"system": "male and female patients with PTSD, panic disorder, anxiety, depression", "test": "Sixteen case reports: oral 7-keto DHEA in PTSD, panic disorder, anxiety, depression and other conditions (Example 2)", "type": "in vivo, human", "procedure": "In all the patient reports that follow, 7-keto DHEA was administered orally."}, "[6]": {"system": "women with severe chronic PTSD", "test": "Five case reports: 7-keto DHEA in women with treatment-resistant PTSD (Example 1)", "type": "in vivo, human", "text": "The following case reports are of 5 women with severe chronic PTSD resulting from severe early abuse who continued to be highly symptomatic despite receiving extensive psychotherapy and years of psychopharmacologic treatment. […] The improvements in these symptoms not only were subjective and objective, but also manifested in significant and rapid benefits in vocational and interpersonal functioning.\nMs. […] A. was so fearful and avoidant they would miss many sessions. They were so fragile and frightened they would frequently dissociate during sessions and forget what had been discussed. […] After the first week of 7-keto DHEA therapy, Ms. […] They reported feeling “more organized, more present” and being able to enjoy socializing “with a significant lessening of constant fear and self-criticism.”\nThe outcome of this case series offers evidence that 7-keto DHEA is beneficial in treating patients with histories of severe early trauma and persistent refractory PTSD."}, "[7]": {"system": "trauma victims with PTSD or depression", "test": "Trauma victims with PTSD or depression, 7-keto DHEA vs placebo (Example 5)", "type": "in vivo, human", "conditions": "75 mg/day by mouth for 1 to 6 months"}, "[8]": {"system": "midlife major and minor depression or dysthymia", "conditions": "case reports; cited from earlier work"}}, "data": [{"smiles": "CC(=O)OC1CC[C@@]2(C)C(=CC(=O)[C@@H]3[C@@H]2CC[C@]2(C)C(=O)CC[C@@H]32)C1", "note": "(some centres unmarked) [7-keto DHEA, 3-acetyl-7-oxo-dehydroepiandrosterone]", "values": [{"measurement": "stress-related physiologic measures (pain, headaches, hypertension, alcohol and substance abuse, work days lost to illness, cardiac events) compared to placebo", "setting": "[1]; patients with PTSD or depression", "result": "reduction in one or more stress-related physiologic measures"}, {"measurement": "stress-related physiologic measures (pain, headaches, hypertension, alcohol and substance abuse, work days lost to illness, cardiac events) compared to placebo", "setting": "[1]; patients without PTSD or depression", "result": "reduction in one or more stress-related physiologic measures"}, {"measurement": "time the patient remained well", "setting": "[2]; Example 3 patient 7, 200 mg/day", "result": 9, "unit": "months"}, {"measurement": "time the patient remained well", "setting": "[2]; Example 3 patients 3 and 6 on 7-keto DHEA (50; 100 mg/day)", "result": "about 1 year"}, {"measurement": "clinical response", "setting": "[2]; Patient 1, lifelong depression, PMDD, sexual PTSD, 75 mg/day", "result": "improved"}, {"measurement": "clinical response", "setting": "[2]; Patient 2, lifelong anxiety, 4 years of depression, 50 mg/day", "result": "very effective"}, {"measurement": "clinical response", "setting": "[2]; Patient 3, GAD, panic disorder, fibromyalgia/CFS, 50 mg/day", "result": "improvement in their symptoms"}, {"measurement": "clinical response", "setting": "[2]; Patient 4, severe dissociative identity disorder, fibromyalgia, Bipolar Disorder, 200 mg/day", "result": "has been well for a year and is able to read and function"}, {"measurement": "clinical response", "setting": "[2]; Patient 5, PTSD and bipolar 2 disorder, 50 mg/day in summer, 100 mg/day in winter", "result": "very effective"}, {"measurement": "clinical response", "setting": "[2]; Patient 6, failed most antidepressants, atypical antipsychotics and ECT, 100 mg/day", "result": "tremendous positive effects in 1 week"}, {"measurement": "clinical response after partial relapse", "setting": "[2]; Patient 6, dosage increased from 100 mg/day to 300 mg/day after stressful episode (breast cancer)", "result": "good results"}, {"measurement": "clinical response", "setting": "[2]; Patient 7, lifelong depression, sexual PTSD, fibromyalgia/CFS, 200 mg/day", "result": "significant benefit"}, {"measurement": "PTSD, depression and stress-related emotional conditions compared to placebo", "setting": "[3]", "result": "reduction in PTSD, depression and stress-related emotional conditions"}, {"measurement": "differences in clinical laboratory values, minor adverse experiences, vital signs, blood chemistry, urinalysis between treatment and placebo groups", "setting": "[4]; healthy male volunteers", "result": "no differences"}, {"measurement": "side effects or changes in clinical laboratory values", "setting": "[4]; study by Davidson et al.", "result": "no side effects or changes in clinical laboratory values"}, {"measurement": "clinical response", "setting": "[5]; Patient 1, PTSD and Generalized Anxiety Disorder, 25 mg/day oral", "result": "less anxiety within 2 days"}, {"measurement": "clinical response", "setting": "[5]; Patient 2, PTSD, chronic anxiety, Major depression, 50 mg/day oral", "result": "less anxiety and depression"}, {"measurement": "clinical response", "setting": "[5]; Patient 3, Panic Disorder and Generalized Anxiety Disorder, 25 mg/day oral", "result": "less anxiety and panic"}, {"measurement": "clinical response", "setting": "[5]; Patient 4, PTSD, Generalized Anxiety Disorder, Bipolar Depression, 25 mg/day oral", "result": "less anxious and depressed"}, {"measurement": "clinical response", "setting": "[5]; Patient 5, Bipolar Depression and PTSD, 25 mg/day oral", "result": "less anxious and depressed"}, {"measurement": "clinical response", "setting": "[5]; Patient 6, Tourette's Syndrome, chronic dysthymia, anxiety, 50 mg/day oral", "result": "calmer and in a better mood"}, {"measurement": "clinical response", "setting": "[5]; Patient 7, Ankylosing Spondylitis, chronic pain, depression, 25 mg/day oral", "result": "calmer and less depressed"}, {"measurement": "clinical response", "setting": "[5]; Patient 8, Dissociative Disorder, PTSD, Major Depression, Dependent Personality Disorder, 25 mg/day oral", "result": "less anxiety and dissociation"}, {"measurement": "clinical response", "setting": "[5]; Patient 9, PTSD, Generalized Anxiety Disorder, Major Depression, 25 to 50 mg/day oral", "result": "less anxious and depressed"}, {"measurement": "clinical response", "setting": "[5]; Patient 10, Bipolar Depression and PTSD, 25 mg/day oral", "result": "less anxious and depressed"}, {"measurement": "clinical response", "setting": "[5]; Patient 11, Bipolar Depression and PTSD, 25 mg/day oral", "result": "less anxious"}, {"measurement": "clinical response", "setting": "[5]; Patient 12, Bipolar Depression and PTSD, 25 mg/day oral", "result": "less anxious"}, {"measurement": "clinical response", "setting": "[5]; Patient 13, PTSD and Major Depression, 50 mg/day oral", "result": "less depressed and anxious"}, {"measurement": "clinical response", "setting": "[5]; Patient 14, Adult ADHD, Bereavement, PTSD, 25 mg/day oral", "result": "less irritable and anxious"}, {"measurement": "clinical response", "setting": "[5]; Patient 15, Generalized Anxiety Disorder, 25 mg/day oral", "result": "lower anxiety and better mood"}, {"measurement": "clinical response", "setting": "[5]; Patient 16, Generalized Anxiety Disorder and Fibromyalgia, 25 mg/day oral", "result": "lower anxiety and irritability"}, {"measurement": "clinical response", "setting": "[6]; Case 1 (PTSD, bipolar II, dissociative identity disorder), 25 mg/day, after the first week, adjunct", "result": "stopped feeling so fearful, stopped dissociating, was much more communicative, and related better"}, {"measurement": "libido", "setting": "[6]; Case 1, 50 mg/day", "result": "went from having no libido to some libido"}, {"measurement": "clinical response", "setting": "[6]; Case 1, after 3 weeks on 50 mg/day", "result": "stopped having nightmares, had much better concentration, functioned better at work and in social situations, had more stable mood"}, {"measurement": "clinical response", "setting": "[6]; Case 1, dosage increased to 50 mg daily", "result": "even further improvement"}, {"measurement": "clinical response", "setting": "[6]; Case 2 (PTSD, bipolar disorder NOS), 25 mg daily, within a few days, adjunct", "result": "feeling much better"}, {"measurement": "vocational functioning", "setting": "[6]; Case 2, 25 mg daily, within 2 weeks", "result": "felt calm and centered enough to return to work"}, {"measurement": "clinical response", "setting": "[6]; Case 3 (PTSD, major depressive disorder), 25 mg daily, after 4 days, adjunct", "result": "felt better and was no longer getting anxious and overwhelmed by stressful events"}, {"measurement": "nightmares and flashbacks", "setting": "[6]; Case 3, 25 mg daily, seven days after start", "result": "fewer nightmares and flashbacks"}, {"measurement": "clinical response", "setting": "[6]; Case 4 (PTSD with dissociative identity disorder), 50 mg for 6 weeks, adjunct", "result": "some improvement in daily functioning and more positive affect"}, {"measurement": "clinical response", "setting": "[6]; Case 4, 100 mg for 6 weeks", "result": "became much more social"}, {"measurement": "clinical response", "setting": "[6]; Case 4, 150 mg daily", "result": "continued to improve"}, {"measurement": "clinical response", "setting": "[6]; Case 5 (anxiety, PTSD, dissociative identity disorder, panic attacks), 25 mg daily raised to 50 and 75 mg daily, single agent", "result": "feeling calmer and being better able to deal with the stress"}, {"measurement": "reduction in trauma and affective symptoms", "setting": "[6]; all 5 treatment-resistant women, after starting 7-keto DHEA", "result": "rapid and substantial reduction in their trauma and affective symptoms"}, {"measurement": "negative side effects", "setting": "[6]; the 5 patients on 7-keto DHEA", "result": "None of the 5 patients on 7-keto DHEA treatment reported any negative side effects"}, {"measurement": "PTSD, depression and stress-related emotional conditions compared to placebo", "setting": "[7]", "result": "reduction in their PTSD depression and stress-related emotional conditions"}, {"measurement": "induced mania", "setting": "[8]", "result": "no case reports of induced mania"}]}]}
